According to US11155517B2, “4-substituted phenylamine derivatives and their use to protect crops by fighting undesired phytopathogenic micoorganisms” (PI INDUSTRIES LTD., priority 2016, dated 2021):

What was measured:
Type in all cases: cell-based
[1] = tested on: Botrytis cinerea; test: Botrytis cinerea (gray mold) in vitro test, radial growth on Potato Dextrose Agar; conditions: 168 h, 300 ppm, seven days, 22° C., read-out: % (control) compared to the untreated check (radial growth)
[2] = tested on: Alternaria solani; test: Alternaria solani (early blight of tomato/potato) in vitro test, radial growth on Potato Dextrose Agar; conditions: 168 h, 300 ppm, seven days, 25° C., read-out: % control compared to the untreated check (radial growth)
[3] = tested on: Rhizoctonia solani; test: Rhizoctonia solani (rice sheath blight/potato black scurf) in vitro test, radial growth on Potato Dextrose Agar; conditions: 168 h, 300 ppm, seven days, 25° C., read-out: % control compared to the untreated check (radial growth)
[4] = tested on: Fusarium culmorum; test: Fusarium culmorum (foot rot of cereals) in vitro test, radial growth on Potato Dextrose Agar; conditions: Fusarium culmorum, 168 h, read-out: % control compared to the untreated check (radial growth)
[5] = tested on: Pyricularia oryzae; test: microbe, parasite or virus in culture; conditions: 168 h, read-out: % control compared to the untreated check (radial growth)
[6] = tested on: Septoria lycopersici; test: Septoria lycopersici (leaf spot of tomato) in vitro test, radial growth on Potato Dextrose Agar; conditions: 168 h, seven days, 25° C., read-out: % control compared to the untreated check (radial growth)
[7] = tested on: Colletotrichum capsici; test: Colletotrichum capsici (anthracnose) in vitro test, radial growth on Potato Dextrose Agar; conditions: Colletotrichum truncatum, 168 h; 300 ppm; seven days, 25° C.; read-out: % control compared to the untreated check (radial growth)

| Compound | inhibition of growth at 300 ppm [1] | inhibition of growth at 300 ppm [2] | inhibition of growth at 300 ppm [3] | inhibition of growth at 300 ppm [4] | inhibition of growth at 300 ppm [5] | inhibition of growth at 300 ppm [6] | inhibition of growth at 300 ppm [7] |
| --- | --- | --- | --- | --- | --- | --- | --- |
| CCN(C)C=Nc1cc(C)c(Cc2cccc(OC(F)(F)F)c2)cc1F [Compound 206, N-ethyl-N′-(2-fluoro-5-methyl-4-(3-(trifluoromethoxy)benzyl)phenyl)-N-methylformimidamide] | > 80% | > 75% | > 80% | 75% | > 75% | > 70% | > 80% |
| CCN(C)C=Nc1cc(C)c(Cc2ccccc2OC(F)(F)F)cc1F [Compound 207, N-ethyl-N′-(2-fluoro-5-methyl-4-(2-(trifluoromethoxy)benzyl)phenyl)-N-methylformimidamide] | > 80% | > 75% | > 80% | 75% | > 75% | > 70% | > 80% |
| CCN(C)C=Nc1cc(C)c(Cc2cccc(Cl)c2)cc1F [Compound 208, N′-(4-(3-chlorobenzyl)-2-fluoro-5-methylphenyl)-N-ethyl-N-methylformimidamide] | > 80% | > 75% | > 80% | 75% | > 75% | > 70% | > 80% |
| CCN(C)C=Nc1cc(C)c(Cc2cccc(F)c2)cc1F [Compound 209, N-ethyl-N′-(2-fluoro-4-(3-fluorobenzyl)-5-methylphenyl)-N-methylformimidamide] | > 80% | > 75% | > 80% | 75% | > 75% | > 70% | > 80% |
| CCN(C)C=Nc1cc(C)c(Cc2cccc(C)c2)cc1F [Compound 210, N-ethyl-N′-(2-fluoro-5-methyl-4-(3-methylbenzyl)phenyl)-N-methylformimidamide] | > 80% | > 75% | > 80% | 75% | > 75% | > 70% | > 80% |
| CCN(C)C=Nc1cc(C)c(Cc2ccccc2C)cc1F [Compound 212, N-ethyl-N′-(2-fluoro-5-methyl-4-(2-methylbenzyl)phenyl)-N-methylformimidamide] | > 80% | > 75% | > 80% | 75% | > 75% | > 70% | > 80% |
| CCN(C)C=Nc1cc(C)c(Cc2ccccc2Cl)cc1F [Compound 213, N′-(4-(2-chlorobenzyl)-2-fluoro-5-methylphenyl)-N-ethyl-N-methylformimidamide] | > 80% | > 75% | > 80% | 75% | > 75% | > 70% | > 80% |
| CCN(C)C=Nc1cc(C)c(Cc2ccccc2F)cc1F [Compound 214, N-ethyl-N′-(2-fluoro-4-(2-fluorobenzyl)-5-methylphenyl)-N-methylformimidamide] | > 80% | > 75% | > 80% | 75% | > 75% | > 70% | > 80% |
| CCN(C)C=Nc1cc(C)c(Cc2c(F)cccc2C(F)(F)F)cc1Cl [Compound 220, N′-(2-chloro-4-(2-fluoro-6-(trifluoromethyl)benzyl)-5-methylphenyl)-N-ethyl-N-methylformimidamide] | > 80% | > 75% | > 80% | 75% | > 75% | > 70% | > 80% |
| CCN(C)C=Nc1cc(C)c(Cc2ccccc2F)cc1C1CC1 [Compound 221, N′-(2-cyclopropyl-4-(2-fluorobenzyl)-5-methylphenyl)-N-ethyl-N-methylformimidamide] | > 80% | > 75% | > 80% | 75% | > 75% | > 70% | > 80% |
| CCN(C)C=Nc1cc(C)c(Cc2ccc(C)cc2)cc1C1CC1 [Compound 222, N′-(2-cyclopropyl-5-methyl-4-(4-methylbenzyl)phenyl)-N-ethyl-N-methylformimidamide] | > 80% | > 75% | > 80% | 75% | > 75% | > 70% | > 80% |
| CCN(C)C=Nc1cc(C)c(Cc2ccccc2Cl)cc1C1CC1 [Compound 223, N′-(4-(2-chlorobenzyl)-2-cyclopropyl-5-methylphenyl)-N-ethyl-N-methylformimidamide] | > 80% | > 75% | > 80% | 75% | > 75% | > 70% | > 80% |
| CCN(C)C=Nc1cc(C(F)(F)F)c(Cc2ccc(C)cc2)cc1F [Compound 225, N-ethyl-N′-(2-fluoro-4-(4-methylbenzyl)-5-(trifluoromethyl)phenyl)-N-methylformimidamide] | > 80% | > 75% | > 80% | 75% | > 75% | > 70% | > 80% |
| CCN(C)C=Nc1cc(C#N)c(Cc2cccc(Cl)c2)cc1C [Compound 249, N′-(4-(3-chlorobenzyl)-5-cyano-2-methylphenyl)-N-ethyl-N-methylformimidamide] | > 80% | > 75% | > 80% | 75% | > 75% | > 70% | > 80% |
| CCN(C)C=Nc1cc(Cl)c(Cc2ccccc2F)cc1C [Compound 256, N′-(5-chloro-4-(2-fluorobenzyl)-2-methylphenyl)-N-ethyl-N-methylformimidamide] | > 80% | > 75% | > 80% | 75% | > 75% | > 70% | > 80% |
| CCN(C)C=Nc1cc(Cl)c(Cc2ccccc2C)cc1C [Compound 257, N′-(5-chloro-2-methyl-4-(2-methylbenzyl)phenyl)-N-ethyl-N-methylformimidamide] | > 80% | > 75% | > 80% | 75% | > 75% | > 70% | > 80% |
